This is an account of results in ChEMBL document CHEMBL1201862, “PubChem BioAssay data set” (2004).

Among the test systems are HCT-116; Malme-3M; NCI-H226; HOP-92; BT-549; Hs-578T; RXF 393; OVCAR-8; SF-295; 786-0; SK-OV-3; SNB-19; MDA-MB-231; SF-539; UACC-257; M14; A549; CCRF-CEM; T47D; RPMI-8226.
Holding throughout (assay): NCI-60 cell line screen, 48 h

Each structure is given as a SMILES string.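 Results reflect a 48-hour exposure of cells in 96-well plates to compound at five concentrations. Here, GI50 denotes the concentration required for 50% inhibition of growth.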 The source made the active and inactive calls. Cut-off read from the data, not from the text of the source: active = GI50 up to about 1.1 µM and inactive = higher.

In the case of `COC(=O)[C@@H]1[C@H](O)CCC2=C(CC(=O)c3ccoc3)[C@H](C)CC[C@]21C`, the GI50 was 22.6 µM (inactive) with HCT-116; > 50 µM (inactive) in the assay with Malme-3M; 46.2 µM (inactive) in the assay on NCI-H226; > 50 µM (inactive) with HOP-92; 18.8 µM (inactive) in the assay with BT-549; > 50 µM (inactive) in the assay with Hs-578T. The GI50 was 41.7 µM (inactive) with RXF 393; 35.8 µM (inactive) in the assay with OVCAR-8; 31.4 µM (inactive) with SF-295; > 50 µM (inactive) with 786-0; > 50 µM (inactive) in the assay with SK-OV-3; > 50 µM (inactive) with SNB-19. Moreover, the GI50 in the assay with MDA-MB-231 is > 50 µM (inactive); with SF-539, > 50 µM (inactive); with UACC-257 it was 22.9 µM (inactive); with M14, 41.2 µM (inactive); in the assay on A549, > 50 µM (inactive).

Regarding `CN1C(=O)C(=Cc2ccc(Br)cc2)C(=O)N(C)C1=O`, the GI50 in the assay on HCT-116 was > 100 µM (inactive); in the assay with NCI-H226, > 100 µM (inactive); with HOP-92, > 100 µM (inactive); in the assay with BT-549, > 100 µM (inactive); with RXF 393, 40.8 µM (inactive); in the assay on SF-295, > 100 µM (inactive). For the same molecule, the GI50 with 786-0, in the assay on SK-OV-3, in the assay on SNB-19, in the assay on MDA-MB-231, in the assay with UACC-257 and with CCRF-CEM was > 100 µM (inactive) throughout. Besides, the GI50 in the assay on M14, in the assay with T47D, in the assay on A549 and with RPMI-8226 was > 100 µM (inactive) each time.

Consider `Nc1ncnc2c1ncn2C1OC(COC2C(CO)OC(OC(C(=O)O)C(O)C(OP(=O)(O)O)C(O)C(=O)O)C(O)C2O)C(O)C1O` (centres undefined), for which the GI50 in the assay with HCT-116 was > 100 µM (inactive); in the assay with Malme-3M, 45.7 µM (inactive); in the assay on NCI-H226, > 100 µM (inactive); with BT-549, > 100 µM (inactive); in the assay on Hs-578T, 14.9 µM (inactive); in the assay on OVCAR-8, > 100 µM (inactive). In addition, the GI50 is > 100 µM (inactive) with SF-295; > 100 µM (inactive) in the assay on 786-0; > 100 µM (inactive) with SK-OV-3; > 100 µM (inactive) in the assay on SNB-19; > 100 µM (inactive) in the assay with MDA-MB-231; 90.2 µM (inactive) in the assay with SF-539. Further, the GI50 in the assay with UACC-257, in the assay with CCRF-CEM, in the assay with M14, with A549 and in the assay with RPMI-8226 was > 100 µM (inactive) each time.

With `CC1(C)[N+]([O-])=[N+]([O-])C1(C)Br` (centres undefined), the GI50 in the assay on HCT-116 was > 100 µM (inactive); in the assay on NCI-H226 it was > 100 µM (inactive); with BT-549, > 100 µM (inactive); in the assay on Hs-578T, > 100 µM (inactive); in the assay with RXF 393 it was 43.8 µM (inactive); in the assay on OVCAR-8, > 100 µM (inactive). For the same molecule, the GI50 in the assay with SF-295 was 82.4 µM (inactive); in the assay on 786-0, > 100 µM (inactive); in the assay with SK-OV-3, > 100 µM (inactive); with SNB-19, > 100 µM (inactive); with MDA-MB-231, > 100 µM (inactive); in the assay on SF-539, > 100 µM (inactive). Moreover, the GI50 with UACC-257, in the assay on CCRF-CEM, in the assay on M14 and in the assay with A549 was > 100 µM (inactive) in each case.

Turning to `COCCN(C(C)=O)C1CCC2(SCCS2)c2[nH]c3ccccc3c21` (centres undefined), the GI50 is > 100 µM (inactive) in the assay on HCT-116; > 100 µM (inactive) in the assay with Malme-3M; > 100 µM (inactive) in the assay with NCI-H226; 70.3 µM (inactive) in the assay on HOP-92; > 100 µM (inactive) with BT-549; > 100 µM (inactive) in the assay with Hs-578T. Moreover, the GI50 in the assay on RXF 393, in the assay on OVCAR-8, in the assay on SF-295, with 786-0, with SNB-19 and in the assay on MDA-MB-231 was > 100 µM (inactive) in each case. For the same molecule, the GI50 is > 100 µM (inactive) in the assay with SF-539; > 100 µM (inactive) in the assay on UACC-257; > 100 µM (inactive) in the assay on CCRF-CEM; > 100 µM (inactive) in the assay with A549; 35.5 µM (inactive) in the assay on RPMI-8226.

With `COc1cc2c(cc1OCCCCN1C(=O)c3cccc4cccc(c34)C1=O)N=C[C@@H]1CCCN1C2=O`, the GI50 in the assay with HCT-116 was 3.59 µM (inactive); with Malme-3M, 3.72 µM (inactive); with NCI-H226, 8.36 µM (inactive); in the assay on HOP-92, 6.18 µM (inactive); with BT-549 it was 3.52 µM (inactive); with RXF 393, 2.09 µM (inactive). Moreover, the GI50 in the assay on OVCAR-8 was 3.11 µM (inactive); in the assay with SF-295, 6.04 µM (inactive); in the assay on 786-0 it was 2.64 µM (inactive); in the assay with SK-OV-3, 9.48 µM (inactive); in the assay on SNB-19 it was 6.17 µM (inactive); in the assay on MDA-MB-231, 3.53 µM (inactive). Besides, the GI50 with SF-539 is 2.55 µM (inactive); with UACC-257, 7.05 µM (inactive); in the assay with CCRF-CEM, 1.64 µM (inactive); in the assay on M14, 5.56 µM (inactive); in the assay with T47D, 7.93 µM (inactive); in the assay on A549, 5.68 µM (inactive). The GI50 in the assay on RPMI-8226 is 2.69 µM (inactive).

Take `C=C1CCc2ccccc2C1=O`: the GI50 in the assay with HCT-116, in the assay with Malme-3M, in the assay with NCI-H226, in the assay with HOP-92, in the assay with BT-549 and in the assay with Hs-578T was > 100 µM (inactive) in each case. Moreover, the GI50 is > 100 µM (inactive) with RXF 393; > 100 µM (inactive) in the assay with OVCAR-8; 51.3 µM (inactive) with SF-295; > 100 µM (inactive) with 786-0; > 100 µM (inactive) in the assay on SK-OV-3; > 100 µM (inactive) in the assay on SNB-19. The GI50 with MDA-MB-231 was > 100 µM (inactive); in the assay with SF-539, > 100 µM (inactive); in the assay on UACC-257 it was > 100 µM (inactive); with CCRF-CEM, 45.8 µM (inactive); with M14, > 100 µM (inactive); in the assay with A549, > 100 µM (inactive). The GI50 in the assay on RPMI-8226 is > 100 µM (inactive).

Turning to `C[C@]12CC[C@@H]3c4ccc(OC(=O)c5ccccc5)cc4CC[C@H]3[C@@H]1CC[C@@H]2Oc1c2ccccc2nc2ccccc12`, the GI50 in the assay on HCT-116 was 7.8 µM (inactive); with Malme-3M, 7.94 µM (inactive); in the assay on NCI-H226, 14.9 µM (inactive); with HOP-92, 12.9 µM (inactive); in the assay on BT-549 it was 9.98 µM (inactive); in the assay with Hs-578T, 5.5 µM (inactive). Besides, the GI50 with RXF 393 is 8.09 µM (inactive); with OVCAR-8, 13 µM (inactive); in the assay on SF-295, 16 µM (inactive); in the assay on 786-0 it was 7.66 µM (inactive); with SK-OV-3 it was 20.7 µM (inactive); in the assay on SNB-19 it was 7.45 µM (inactive). Also, the GI50 was 11.5 µM (inactive) with MDA-MB-231; 13.6 µM (inactive) in the assay with UACC-257; 0.0161 µM (active) in the assay with CCRF-CEM; 7.43 µM (inactive) in the assay on M14; 6.62 µM (inactive) in the assay on A549; 7.69 µM (inactive) in the assay on RPMI-8226.
